Data published in patent US20220073941A1, “HERBICIDE-RESISTANT CAMELINA SATIVA PLANTS, AND VARIANT CAMELINA ACETOHYDROXYACID SYNTHASE POLYPEPTIDES” (priority 2019, published 2022).
Several values for one entry are separate records, joined by “and”; a condition that tells them apart may be missing. Equal entries are not always repeated. Blank lines part the entries; values can stand above or below the molecule they belong to.

Legend:
Experiment in all cases: AHAS product feedback inhibition assay (leucine, isoleucine, valine)
Assay type in all cases: biochemical, Camelina sativa
Conditions in all cases: for % activity (AHAS activity as % of control): control 100 mM pyruvate, no added amino acid, per experiment (Exp. 1-3); for % activity (AHAS activity as % of control), means: means of 3 experiments; for Absorbance at 530 nm (AHAS product feedback inhibition assay, raw data), Avg: average of replicates per experiment; for Absorbance at 530 nm (AHAS product feedback inhibition assay, raw data): individual replicates, experiments 1-3
[1] = tested on: AHAS, enzyme extract of SRS 934
Procedure: (§1) Briefly, for each of the three comparators, leaf and stem (petiole) material was bulk-harvested at the 3-4 leaf stage from at least 30 plantlets, snap-frozen in liquid nitrogen, and stored at −80° C. The AHAS in vitro assay was conducted according to the method of Singh et al (1988), with modifications by Yu (2010) and Rustgi (2014). For each comparator, 4 grams of frozen material were ground to a fine powder with a mortar and pestle in liquid nitrogen and homogenized in 1 volume of cold extraction buffer containing 100 mM potassium phosphate buffer (pH7.5), 10 mM sodium pyruvate, 5 mM MgCl2, 100 μM flavin adenine dinucleotide (FAD), and 10% glycerol. Four 2-mL microcentrifuge tubes were used for each comparator. The homogenate was centrifuged at 13,000 rpm for 10 min at 4° C., supernatant collected and re-centrifuged for an additional 10 minutes under the same conditions. For each tube, 1 mL of supernatant was pipetted into a new 2-mL microcentrifuge tube, and protein was precipitated by the addition of 1 mL of saturated ammonium sulfate. The solution was mixed well by vortex and allowed to stand on ice for 20 minutes, then centrifuged at 13,000 rpm at 4° C. The protein pellet was resuspended in 300 μL of reaction buffer containing 50 mM potassium phosphate buffer (pH7.5), 100 mM sodium pyruvate, 10 mM MgCl2, 1 mM EDTA, 10 μM FAD, 100 mM NaCl, and 1 mM thiamine pyrophosphate. Tubes of each comparator were combined, mixed well, kept on ice and immediately used in the AHAS activity and feedback inhibition assays.
(§2) Total protein concentration of the crude extract was determined by the Bradford method (Bradford, 1976). All assays were conducted using 300 μg of total protein each.
(§3) The feedback inhibition assay was performed by combining equal amounts of extract and amino acids leucine, isoleucine, or valine, respectively, in concentrations of 0.1 mM, 1 mM, 10 mM and 100 mM, according to Yu et al. (2010). The reaction mixture contained 50 μL enzyme extract and 50 μL 100 mM sodium pyruvate and inhibitor amino acid. The reaction was incubated at 37° C. for 60 minutes, then stopped and acetolactate converted to acetoin with the addition of 20 μL of 6 N H2SO4 and incubated at 60° C. for 15 minutes. A separate background “blank” was included for each sample group by adding 20 μL of 6 N H2SO4 prior to the addition of the enzyme extracts. Then, 95 μL of 0.55% w/v creatine solution and 95 μL of α-naphthol solution (5.5% w/v in 5 N NaOH) were added and the mixture incubated at 60° C. for a further 15 minutes. After cooling to room temperature for 15 minutes, enzyme activity was determined colorimetrically by reading the absorbance at 530 nm. Three independent experiments were conducted. Experiment 1 and 2 each contained 2 technical replicates, while experiment 3 included 3 technical replicates.

[2] = tested on: AHAS, enzyme extract of MIDAS™
Procedure: as §1, §2, §3

[3] = tested on: AHAS, enzyme extract of 14CS0851-01-14
Procedure: as §1, §2, §3

[4] = 1 mM amino acid final concentration
[5] = 10 mM amino acid final concentration
[6] = 100 mM amino acid final concentration

% activity (AHAS activity as % of control) ([1]; 1 mM final concentration): 51.5% and 83.5% and 45.2% | % activity (AHAS activity as % of control), means ([1]; 1 mM final concentration): 60.1% | % activity (AHAS activity as % of control) ([1]; 10 mM final concentration): 45.1% and 70.4% and 43.0% | % activity (AHAS activity as % of control), means ([1]; 10 mM final concentration): 52.8% | % activity (AHAS activity as % of control) ([1]; 100 mM final concentration): 37.2% and 59.1% and 40.6% | % activity (AHAS activity as % of control), means ([1]; 100 mM final concentration): 45.7% | % activity (AHAS activity as % of control) ([2]; 1 mM final concentration): 50.4% and 63.2% and 45.2% | % activity (AHAS activity as % of control), means ([2]; 1 mM final concentration): 52.9% | % activity (AHAS activity as % of control) ([2]; 10 mM final concentration): 39.8% and 58.2% and 39.6% | % activity (AHAS activity as % of control), means ([2]; 10 mM final concentration): 45.9% | % activity (AHAS activity as % of control) ([2]; 100 mM final concentration): 33.2% and 53.3% and 38.1% | % activity (AHAS activity as % of control), means ([2]; 100 mM final concentration): 41.6% | % activity (AHAS activity as % of control) ([3]; 1 mM final concentration): 48.8% and 63.7% and 57.9% | % activity (AHAS activity as % of control), means ([3]; 1 mM final concentration): 56.8% | % activity (AHAS activity as % of control) ([3]; 10 mM final concentration): 41.6% and 58.1% and 39.5% | % activity (AHAS activity as % of control), means ([3]; 10 mM final concentration): 46.4% | % activity (AHAS activity as % of control) ([3]; 100 mM final concentration): 34.2% and 52.1% | % activity (AHAS activity as % of control), means ([3]; 100 mM final concentration): 40.2%
SMILES: CC(C)C[C@H](N)C(=O)O [Leu]

Absorbance at 530 nm (AHAS product feedback inhibition assay, raw data), Avg [1, 4]: 0.204 and 0.192 and 0.089 | Absorbance at 530 nm (AHAS product feedback inhibition assay, raw data), Avg [1, 5]: 0.1785 and 0.162 and 0.085 | Absorbance at 530 nm (AHAS product feedback inhibition assay, raw data), Avg [1, 6]: 0.1475 and 0.136 and 0.080 | Absorbance at 530 nm (AHAS product feedback inhibition assay, raw data), Avg [2, 4]: 0.2245 and 0.180 and 0.106 | Absorbance at 530 nm (AHAS product feedback inhibition assay, raw data), Avg [2, 5]: 0.1775 and 0.166 and 0.093 | Absorbance at 530 nm (AHAS product feedback inhibition assay, raw data), Avg [2, 6]: 0.148 and 0.152 and 0.090 | Absorbance at 530 nm (AHAS product feedback inhibition assay, raw data), Avg [3, 4]: 0.204 and 0.149 and 0.094 | Absorbance at 530 nm (AHAS product feedback inhibition assay, raw data), Avg [3, 5]: 0.174 and 0.136 and 0.064 | Absorbance at 530 nm (AHAS product feedback inhibition assay, raw data), Avg [3, 6]: 0.122 and 0.056 | sensitivity of AHAS to feedback inhibition, comparison of enzyme extracts ([3]; extracts of 14CS0851-01-14, SRS 934 and MIDAS™ compared, 1 mM, 10 mM, 100 mM): no significant difference
SMILES: CC(C)C[C@H](N)C(=O)O [leucine]
Absorbance at 530 nm (AHAS product feedback inhibition assay, raw data) [1, 4]: 0.2 and 0.208 and 0.225 and 0.158 and 0.097 and 0.085 and 0.086 | Absorbance at 530 nm (AHAS product feedback inhibition assay, raw data) [1, 5]: 0.17 and 0.187 and 0.163 and 0.140 and 0.092 and 0.091 and 0.071 | Absorbance at 530 nm (AHAS product feedback inhibition assay, raw data) [1, 6]: 0.154 and 0.141 and 0.167 and 0.104 and 0.084 and 0.068 and 0.089 | Absorbance at 530 nm (AHAS product feedback inhibition assay, raw data) [2, 4]: 0.215 and 0.234 and 0.198 and 0.162 and 0.102 and 0.105 and 0.112 | Absorbance at 530 nm (AHAS product feedback inhibition assay, raw data) [2, 5]: 0.178 and 0.177 and 0.181 and 0.150 and 0.096 (2×) and 0.088 | Absorbance at 530 nm (AHAS product feedback inhibition assay, raw data) [2, 6]: 0.142 and 0.154 and 0.153 and 0.150 and 0.078 and 0.096 (2×) | Absorbance at 530 nm (AHAS product feedback inhibition assay, raw data) [3, 4]: 0.214 and 0.194 and 0.162 and 0.136 and 0.079 and 0.099 and 0.105 | Absorbance at 530 nm (AHAS product feedback inhibition assay, raw data) [3, 5]: 0.183 and 0.165 and 0.151 and 0.120 and 0.066 and 0.061 and 0.067 | Absorbance at 530 nm (AHAS product feedback inhibition assay, raw data) [3, 6]: 0.146 and 0.14 and 0.138 and 0.105 and 0.051 and 0.060 and 0.057
